Results as given in patent publication US5484770A, “Peptide compounds which inhibit the proliferation of epidermal or epithelial stem cells” (Hafslund Nycomed Bioreg AS, priority 1988, dated 1996).
Where a SMILES comes first, the peptide text is derived from it. [ ]: non-standard residue; d: D form. pGlu = O=C1CC[C@@H](C(=O)O)N1

System: haemopoiesis
Assay: inhibitory effect on haemopoiesis in vivo
Settings: time at which the inhibitory effect occurs
Description: By contrast it is also possible to prepare peptides having a metabolically labile blocking group so that slow release of the unblocked peptide can be achieved in vivo. Thus according to a further aspect of the invention we provide compounds of formula [drawing 10] wherein R^a, R^b, R^c, R^e, R^f and n are as defined for formula I, R^12 is a metabolically labile group, for example a 2-pyridylthio group, and all amino acids have the chiral form stated for formula (I).

For `NCCCC[C@H](NC(=O)[C@H](CS)NC(=O)[C@H](CC(=O)O)NC(=O)[C@H](CCC(=O)O)NC(=O)[C@@H]1CCC(=O)N1)C(=O)O` [Example 1, L-PYROGLUTAMYL-L-GLUTAMYL-L-ASPARTYL-L-CYSTEINYL-L-LYSINE] ([pGlu]EDCK-OH), the “inhibitory effect on haemopoiesis, occurring after” value was 1 days.
